From US20240166723A1, “MECHANOCHEMICAL GENERATION OF NOVEL COLLAGEN GEL ARCHITECTURES AND SCAFFOLDS” (Yale University, priority 2022, published 2024)

Key:
MDA-MB-231 cells [1] = experiment: Migration inhibition drug assay: MDA-MB-231 cell migration in 3D collagen; format: cell-based, human; conditions: thick collagen, day0 and day1; GM6001 20 μM, Y27632 30 μM, ML141 10 μM, SMIFH2 50 μM, NSC23766 100 μM
Experimental: (§1) To investigate the specific molecular mechanism behind the elevated migration of MDA-MB-231 cells in thick collagen, the following drugs were tested in these gels: pan-MMP inhibitor GM6001 (20 μM), potent selective Cdc42 inhibitor ML141 (10 μM), ROCK inhibitor Y27632 (30 μM), ARP2/3 inhibitor CK666 (50 μM), formin inhibitor SMIFH2 (50 μM) and Rac1 inhibitors NSC23766 (100 μM) and EHT1864 (20 μM). First cell morphology was traced and quantified. […] The graphic illustration of each morphological index can be found in FIG. 12B.
Apart from morphology signatures, cell migration was also tracked (FIG. 5A-C, FIG. 13A-B and FIG. 18A). […] GM6001-treated MDA-MB-231 cells in thick collagen migrated as actively as the DMSO control, both increased compared to cells in normal collagen. […] However, the interpretation of NSC23766 was confounded by the poor performance of another […]. NSC23766 binds directly to Rac1 and blocks the interaction between GEF Trio or Tiam (Gao et al., Proceedings Of The National Academy Of Sciences Of The United States Of America, 2004, 101, 7618-7623). EHT1864 binds to Rac1 but it is an allosteric inhibitor for guanine association. […] The differential preference between MDA-MB-231 cells for a stiff substrate and metastatic ovarian cancer cells (MOCC) for compliant substrate for migration (McGrail et al., Journal of Cell Science 2014, 127, 2621-2626); McGrail et al., Physical Biology 2015, 12, 026001) may be dictated by Rac1 and […], respectively.
(§2) Drugs were reconstituted and stored following manufacturers' recommendations and diluted in culture media to working concentrations. Specifically, 20 μM pan-MMPs inhibitor GM6001(Abcam, ab120845), 30 μM ROCK inhibitor Y27632 (Abcam, ab144494), 10 μM Cdc42 inhibitor ML141 (Calbiochem®217708), 50 μM formin inhibitor SMIFH2 (Abcam, ab218296), 50 μM ARP2/3 inhibitor CK666 (Abcam, ab141231), 100 μM Rac1 inhibitor NSC23766, 20 μM Rac1 inhibitor EHT1864 (Cayman 17258) were used. Fresh media mixed with specific drug were prepared right before experiment and replaced daily. In the drug assays, at least two independent experiments were performed with at least two replicates (technical duplicates) in each experiment.
Imaging was performed using a Leica SP8 confocal microscope. Time-lapse imaging (XYZT mode) was taken with a 20× objective (0.75 NA), with time interval set to 3 minutes or 6 minutes and z-step size set to 2 μm. Day0 time-lapse imaging was acquired between around 0hr to 12 hrs post embedding cells into gels. Day1 time-lapse imaging was acquired between around 24 hrs to 36 hrs post gel-embedment. Overview tilescan images were taken at day1, day2 or day5 respectively.
To track cell migration, XYZT data were first reduced in dimensions by conducting standard deviation projection along the z-axis. The XYT data were then processed by TrackMate in Fiji and produced cell trajectories. Trajectories were exported to MATLAB to calculate average speed and mean squared displacement. Average speed specifically refers to the mean of the absolute value of the net displacement of the cell center per hour. Mean squared displacements were computed with the following equation (Gorelik, Nature Protocols 2014, 9, 1931-1943): […]

MDA-MB-231 cells [2] = experiment: Morphology of MDA-MB-231 cells under drug treatment in normal versus thick collagen; format: cell-based, human; conditions: for cell shape and protrusions / cell morphology versus control: normal and thick collagen; for cell shape and protrusions / F-actin accumulation on the cell periphery: day2; for cell morphology versus control: Y27632 30 μM, CK666 50 μM, SMIFH2 50 μM; for effect on cell morphology: normal collagen
Experimental: as §1, §2
In this equation, N is the total step number, n is the n-th step, x,y are the x,y coordinates respectively. For morphology analysis, z projected tilescan images were segmented and analyzed by in-house MATLAB codes. Segmentation performance was validated, with wrong segmentation manually corrected or removed. For difficult automatic segmentation data such as the Y27632 treated condition, manually tracked data were supplemented. The definitions of elongation, compactness, sphericity and shape variance were described in FIG. 4B (Liu, Scientific Reports 2022, 12, 791). A custom ImageJ script was used to derive the colocalization of the YAP/TAZ signal in the nucleus and cytoplasm. Specifically, the central plane of each cell is first extracted. DAPI and YAP/TAZ channels are then used to produce masks for cell nucleus and cell body respectively. Nucleus YAP/TAZ is calculated by averaging YAP/TAZ intensity within the nucleus mask and cytoplasmic YAP/TAZ is calculated by averaging YAP/TAZ intensity outside the nucleus mask but within cell body. To note, only YAP/TAZ of focal plane is used for average calculation. For thick collagen bundle size measurement, “Analyze Particle” function from Fiji was used.

[3] = test system: D1 murine mesenchymal stem cells (MSCs); experiment: MSC migration in collagen gels, time-lapse confocal cell tracking; conditions: MSCs treated with inhibitors of myosin-based contractility, day 6
Experimental: To determine how island architecture modulates stem cell behavior, DI MSC's were seeded in gels that were adherent to polydopamine covered glass (FIG. 37). Polydopamine allows for collagen to remain anchored to surfaces for imaging and prevents total compaction of the gel during experiments (Park et al., ACS Applied Materials & Interfaces 2019, 11, 23919-23925). MSC migration in gels were then visualized. To capture cell migration in these gels, a stable LifeAct-RFP dye was transduced into MSCs and then these encapsulated cells were imaged with time-lapse confocal fluorescence microscopy. Cell tracking analysis was performed to determine migration metrics (FIG. 22A). The cells both 1 day after seeding and 6 days after seeding were imaged for 12 hour timelapses. […] After 6 days of culture, differences in migratory behavior were observed between MSCs cultured in different island gels (FIG. 22B).
D1 MSCs or D1 MSC-LifeActRFP cells were mixed with the collagen solution prior to gelation to achieve a final cell concentration of 15000 cells/ml. Cells were cultured in 50%/50% mixture of the osteogenic induction medium and adipogenic induction medium (differentiation medium). The differentiation medium contained 50 μg/ml L-ascorbic acid (MilliporeSigma), 10 mM β-glycerophosphate (MilliporeSigma), and 0.1 μM dexamethasone (MilliporeSigma) in the DMEM growth medium.
MSC time lapses were performed in 12 well glass bottom dishes which had been polydopamine coated. 12 hour time lapses were taken on Day 1 and Day 6. Automatic cell segmentation was obtained using Imaris (Oxford Instruments). Manual filtering was done to determine which cells were to be used for downstream analysis. From these segmentations, cell movement was tracked and metrics such as mean speed, sphericity, and migration track length over the timelapse were obtained. Mean speed is defined as the average of instantaneous speeds between timepoints.

[4] = test system: human pancreatic cancer cells PANC-1; conditions: aligned matrix fiber; cited from earlier work
[5] = test system: chronic lymphocytic leukemia cells; conditions: cited from earlier work
[6] = test system: PDGF-induced lamellipodia formation; conditions: cited from earlier work
OVCA429 = conditions: 2D conditions; cited from earlier work
SKOV3ip = conditions: 2D conditions; cited from earlier work

SMILES: C[C@@H](N)[C@H]1CC[C@H](C(=O)Nc2ccncc2)CC1 [Y27632]
- MDA-MB-231 cell migration (MDA-MB-231 cells [1]): significantly reduced MDA-MB-231 cell migration
- cell shape and protrusions (MDA-MB-231 cells [2]): extremely long cell protrusions
- cell morphology versus control (MDA-MB-231 cells [2]; NSC23766 100 μM): distinct morphologies compared with control
- cell migration track length [3]: decreases in cell migration track length

SMILES: CCN(CC)CCCC(C)Nc1nc(C)cc(Nc2ccc3nc(C)cc(N)c3c2)n1 (centres unmarked) [NSC23766]
- MDA-MB-231 cell migration (MDA-MB-231 cells [1]): significantly reduced MDA-MB-231 cell migration
- cell size (MDA-MB-231 cells [2]; NSC23766 100 μM): smaller than most other drug conditions
- F-actin accumulation on the cell periphery (MDA-MB-231 cells [2]): clearly visible
- cell morphology versus control (MDA-MB-231 cells [2]; NSC23766 100 μM): distinct morphologies compared with control
- effect on cell morphology (MDA-MB-231 cells [2]): all cells are round
- cell migration track length [3]: decreases in cell migration track length
- cell movement [4]: inhibited cell movement, regardless of collagen fiber orientation
- proliferation [5]: proliferation arrest

SMILES: O=S(=O)(c1cccc2c(I)cccc12)N1CCCNCC1 [ML-7]
- cell migration track length [3]: decreases in cell migration track length

SMILES: O=C1NC(=S)N(c2cccc(Br)c2)C(=O)/C1=C/c1ccco1 [SMIFH2]
- MDA-MB-231 cell migration (MDA-MB-231 cells [1]): significantly reduced MDA-MB-231 cell migration
- F-actin accumulation on the cell periphery (MDA-MB-231 cells [2]): lacked F-actin accumulation on the cell periphery
- cell shape and protrusions (MDA-MB-231 cells [2]): round and lacked cell peripheral fluctuations
- cell morphology versus control (MDA-MB-231 cells [2]; NSC23766 100 μM): distinct morphologies compared with control
- effect on cell morphology (MDA-MB-231 cells [2]): all cells are round

SMILES: O=c1cc(CN2CCOCC2)occ1OCCCCCSc1ccnc2cc(C(F)(F)F)ccc12 [EHT1864]
- effect on cell morphology (MDA-MB-231 cells [2]): all cells are round
- PDGF-induced lamellipodia formation [6]: can inhibit PDGF-induced lamellipodia formation

SMILES: Cc1[nH]c2ccccc2c1CCNC(=O)c1ccccc1F [CK666]
- cell shape and protrusions (MDA-MB-231 cells [2]): elongated and stretched
- cell morphology versus control (MDA-MB-231 cells [2]; NSC23766 100 μM): distinct morphologies compared with control

SMILES: COc1ccc(C2CC(c3ccccc3)=NN2c2ccc(S(N)(=O)=O)cc2)cc1 (centres unmarked) [ML141]
- MDA-MB-231 cell migration (MDA-MB-231 cells [1]): did not show significant inhibition
- effect on cell morphology (MDA-MB-231 cells [2]): all cells are round
- cell movement [4]: moved faster in aligned matrix fiber regardless of ML141 treatment
- inhibition of migration (OVCA429): does inhibit
- inhibition of migration (SKOV3ip): does inhibit

SMILES: CNC(=O)[C@H](Cc1c[nH]c2ccccc12)NC(=O)[C@@H](CC(=O)NO)CC(C)C [GM6001]
- MDA-MB-231 cell migration (MDA-MB-231 cells [1]): failed to inhibit MDA-MB-231 cell migration
- effect on cell morphology (MDA-MB-231 cells [2]): all cells are round
